The experiment deals with T1, human GPR120 (Homo sapiens, UniProt Q5NUL3).
T1 construct: host or cells: CHO-K1
Nature of the experiment: GPR120 β-Arrestin Recruitment Assay (PathHunter, CHO-K1 cells). As to conditions: for EC50: pEC50=−log(EC50) from curve fit, CHO-K1 cells, 90 min incubation, read-out: β-Arr pEC50 (converted); for activation at 10 µM: CHO-K1, read-out: percent activation at a single concentration (printed in the β-Arr pEC50 column). The class given is cell-based. The source says:
This in vitro assay tests compounds' ability to activate intracellular signaling via 3-Arrestin recruitment to heterologously expressed human GPR120. This functional cellular assay utilizes enzyme fragment complementation with β-galactosidlase (β-gal) as a functional reporter (DiscoveRx PathlHunter® β-Arrestin assay platform). The human (GPR120 receptor (GenBank accession Number NM_181745) was fused in frame with the small enzyme fragment ProLink™ and co-expressed in CHO-K1 cells with a fusion protein of β-Arrestin 2 and the larger, N-terminal deletion mutant of β-gal. Activation by a GPR120 agonist stimulates binding of β-arrestin to the ProLink-tagged GPCR and forces complementation of the two enzyme fragments, resulting in the formation of an active β-gal enzyme. This interaction leads to an increase in enzyme activity that can be measured using chemiluminescent PathHunter® Detection Reagents.
One day prior to the assay, cells were seeded in a total volume of 20 μl of growth medium into white walled 384-well microplates and incubated at 37° C./5% CO2 overnight. On the day of the assay, growth medium was removed and 20 μl assay buffer (HBSS+10 mM HEPES+0.1% heat-inactivated BSA) were added to each well.
Test compounds were dissolved in 100% DMSO to a concentration of 10 mM to provide stock solutions. Serial dilutions were performed from stock solutions into assay buffer to obtain intermediate concentrations of 5-fold higher than the concentrations to be tested. 5 μl of the 5× compound solutions were added to the cells and the assay plates were incubated at 37° C. for 90 minutes. The final concentration of compounds tested in the assay ranged from 1.5 nM to 100 μM. Following incubation, 12.5 μl of PathHunter® detection reagent were added to each well, and plates were incubated at room temperature for 60 minutes. Chemiluminescence was read using an EnVision plate reader (PerkinElmer), raw data were expressed as relative light units (RLU).
To determine agonist potencies (EC50 values), non-linear least-squares curve fits of the raw data (RLU) were performed in the GraphPad Prism software package, using the 4-parameter model with variable Hill Slope:
Reported below in Table 1 are pEC50 values (pEC50=−log(EC50) from curve fit) for compounds of Formula I in this assay, β-Arr pEC50 Alternatively, percent activation at a single concentration is reported.
In general terms: Arrestin recruitment assays detect the binding of arrestin to an activated receptor.

SMILES strings stand for the structures.

T1 sequence (Q5NUL3 1-377 isoform Q5NUL3-1): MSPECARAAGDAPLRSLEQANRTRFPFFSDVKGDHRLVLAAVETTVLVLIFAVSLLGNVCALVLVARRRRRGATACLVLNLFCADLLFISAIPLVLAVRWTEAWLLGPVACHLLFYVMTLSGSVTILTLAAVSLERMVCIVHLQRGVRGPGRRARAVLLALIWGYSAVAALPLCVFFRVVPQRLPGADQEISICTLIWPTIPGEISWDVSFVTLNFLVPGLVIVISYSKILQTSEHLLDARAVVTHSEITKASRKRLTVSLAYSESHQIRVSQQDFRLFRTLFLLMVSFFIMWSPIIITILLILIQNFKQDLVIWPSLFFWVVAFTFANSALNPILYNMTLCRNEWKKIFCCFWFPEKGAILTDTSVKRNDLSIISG
T1 sequence (P32121 whole entry partner): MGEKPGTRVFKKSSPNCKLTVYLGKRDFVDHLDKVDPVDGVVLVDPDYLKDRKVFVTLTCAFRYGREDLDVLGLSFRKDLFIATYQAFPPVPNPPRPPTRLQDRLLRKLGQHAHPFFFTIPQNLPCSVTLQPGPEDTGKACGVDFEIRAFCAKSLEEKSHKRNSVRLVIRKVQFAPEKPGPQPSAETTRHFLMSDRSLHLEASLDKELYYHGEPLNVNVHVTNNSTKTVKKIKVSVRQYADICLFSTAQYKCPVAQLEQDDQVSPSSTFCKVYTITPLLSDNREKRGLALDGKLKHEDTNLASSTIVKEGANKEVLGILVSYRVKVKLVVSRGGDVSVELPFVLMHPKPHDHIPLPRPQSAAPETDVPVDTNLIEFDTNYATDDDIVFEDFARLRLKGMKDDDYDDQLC

For the compound `COc1ccc2c(c1)C(=O)N(c1ccnc(Oc3cccnc3)n1)C2` [Compound 11], the EC50 is over 10 µM.
For the compound `COc1cc(N2Cc3ccccc3S2(=O)=O)nc(Oc2ccccc2)n1` [Compound 100], the EC50 is 0.158 µM.
Turning to `O=S1(=O)c2ccccc2CN1c1ccnc(Oc2ccc(C(F)(F)F)cc2)n1` [Compound 47], the EC50 was 6.31 µM.
In the case of `Cc1cc(Oc2cccnc2)nc(N2Cc3ccccc3S2(=O)=O)n1` [Compound 115], the EC50 is 6.31 µM.
Consider `COc1ccc2c(c1)CN(c1ccnc(Oc3cccnc3)n1)C2=O` [Compound 12], for which the EC50 was over 31.6 µM.
`O=C1c2ccccc2CN1c1ccnc(Oc2cccnc2)n1` [Compound 28]: the EC50 is 12.6 µM.
With `CC1(C)c2ccccc2CN1c1ccnc(Oc2cccnc2)n1` [Compound 2], the activation at 10 µM is 18%.
Turning to `O=S1(=O)c2ccccc2CN1c1ccnc(-n2cnc3ccccc32)n1` [Compound 31], the activation at 10 µM came out at 11%.
Regarding `CC1(C)c2ccccc2S(=O)(=O)N1c1ccnc(Oc2cccnc2)n1` [Compound 6], the EC50 was over 10 µM.
Still for that read-out and setting: in the case of `Cc1cc(N2Cc3ccccc3S2(=O)=O)nc(OC2CC(F)(F)C2)n1` [Compound 91] it was 3.98 µM; in that of `O=S1(=O)c2ccccc2CN1c1ccnc(Oc2ccc(Cl)nc2)n1` [Compound 54], over 10 µM.
As for `Cc1cc(Cl)cc(Oc2nccc(N3Cc4ccccc4S3(=O)=O)n2)c1` [Compound 46], the EC50 is 5.01 µM.
On the same count and under the same terms, the value for `O=S1(=O)c2ccccc2CN1c1ncnc(Oc2cccnc2)n1` [Compound 146] was 15.8 µM; that for `O=S1(=O)c2ccccc2CN1c1cc(C(F)(F)F)cc(Oc2cccnc2)n1` [Compound 140] was 1 µM; that for `COc1cc(N2Cc3ccccc3S2(=O)=O)nc(Oc2ccc(Cl)cc2)n1` [Compound 95] was 0.398 µM.
For the compound `CNC(=O)c1cc(N2Cc3ccccc3S2(=O)=O)nc(Oc2cccnc2)n1` [Compound 88], the EC50 was over 10 µM.
The same measure, in the same setting: the value for `CC(=O)Nc1cc(Oc2ccc(Cl)cc2)nc(N2Cc3ccccc3S2(=O)=O)c1` [Compound 138] was 3.16 µM; that for `Cc1nc(Oc2ccc(Cl)cc2)nc(N2Cc3ccccc3S2(=O)=O)n1` [Compound 144] was 2 µM; that for `COc1cccc(Oc2nccc(N3Cc4ccccc4S3(=O)=O)n2)c1` [Compound 39] was over 10 µM.
As to `O=S1(=O)c2ccccc2CN1c1ccnc(Oc2ccc(Oc3ccccc3)cc2)n1` [Compound 43], the EC50 was over 31.6 µM.
Regarding `O=S1(=O)c2ccccc2CN1c1ccnc(OCC2CCCCC2)n1` [Compound 68], the EC50 is 2.51 µM.
Consider `Cc1cc(OC2CC(F)(F)C2)nc(N2Cc3ccccc3S2(=O)=O)n1` [Compound 92], for which the EC50 was 3.16 µM.
The same measure, in the same setting: the value for `CC1c2ccccc2S(=O)(=O)N1c1ccnc(Oc2cccnc2)n1` (stereo not shown) [Compound 8] was 12.6 µM; that for `O=S1(=O)c2ccccc2CN1c1ccnc(OCc2ccncc2)n1` [Compound 73] was over 10 µM.
`CN1CCC(Oc2nccc(N3Cc4ccccc4S3(=O)=O)n2)CC1` [Compound 74]: the EC50 is over 31.6 µM.
In the case of `CS(=O)(=O)N1CC(Oc2nccc(N3Cc4ccccc4S3(=O)=O)n2)C1` [Compound 109], the EC50 was over 31.6 µM.
Turning to `O=S1(=O)c2ccccc2CN1c1ccnc(OCc2ccccc2)n1` [Compound 70], the EC50 was 15.8 µM.
Same read-out and setting: in the case of `NC(=O)COc1nccc(N2Cc3ccccc3S2(=O)=O)n1` [Compound 75] it was over 31.6 µM; in that of `O=S1(=O)c2ccccc2CN1c1cc(C(F)(F)F)nc(Oc2ccc(F)cc2)n1` [Compound 103], 2 µM; in that of `O=S1(=O)c2ccccc2CN1c1ccnc(OC2CCOC2)n1` (stereo not shown) [Compound 65], over 10 µM.
The same measure, in the same setting: the value for `Cc1cccc2c1CN(c1nccc(Oc3cccnc3)n1)C2` [Compound 118] was 1 µM; that for `O=S1(=O)c2ccccc2CN1c1ccnc(OC2CC(F)(F)C2)n1` [Compound 7] was 12.6 µM.
The same measure, in the same setting: in the case of `O=S1(=O)c2ccccc2CN1c1cccc(Oc2ccccc2Cl)n1` [Compound 124] it was over 31.6 µM; in that of `O=C1c2cccnc2CN1c1ccnc(Oc2cccnc2)n1` [Compound 9], over 31.6 µM.
Take `O=S1(=O)c2cccc(Cl)c2CN1c1ccnc(Oc2cccnc2)n1` [Compound 3]: the EC50 was over 31.6 µM.
In the case of `O=S1(=O)c2ccccc2CN1c1ccnc(Oc2cnc3ccccc3c2)n1` [Compound 26], the EC50 is 12.6 µM.
In the case of `O=S1(=O)c2ccccc2CN1c1ccnc(Oc2ccncc2)n1` [Compound 15], the activation at 10 µM worked out at 3%.
Regarding `O=S1(=O)c2ccccc2CN1c1ccnc(OC2CCOCC2)n1` [Compound 64], the EC50 was over 10 µM.
`O=C1c2ncccc2CN1c1ccnc(Oc2cccnc2)n1` [Compound 10]: the EC50 was over 31.6 µM.
The same measure, in the same setting: the value for `N#Cc1cc(N2Cc3ccccc3S2(=O)=O)nc(Oc2cccnc2)n1` [Compound 81] was 6.31 µM; that for `O=C1c2cccc(Br)c2CN1c1ccnc(Oc2cccnc2)n1` [Compound 113] was 12.6 µM; that for `Cc1cc(N2Cc3ccccc3S2(=O)=O)nc(Oc2ccccc2)n1` [Compound 107] was 0.794 µM.
For `Cc1cc(Oc2ccc(F)cc2)nc(N2Cc3ccccc3S2(=O)=O)n1` [Compound 104], the EC50 was 3.98 µM.
Same read-out and setting: the value for `COc1cc(Oc2ccccc2)nc(N2Cc3ccccc3S2(=O)=O)n1` [Compound 102] was 0.794 µM.
In the case of `O=S1(=O)c2ccccc2CN1c1ccnc(Oc2cncnc2)n1` [Compound 25], the activation at 10 µM turned out to be 16%.
As to `COc1ccc2c(c1Cl)S(=O)(=O)N(c1ccnc(Oc3cccnc3)n1)C2` [Compound 5], the EC50 is over 10 µM.
In the case of `COc1ccc2c(c1)S(=O)(=O)N(c1nccc(Oc3cccnc3)n1)C2` [Compound 90], the EC50 is 12.6 µM.
Take `COc1ccc2c(c1)CN(c1cccc(Oc3cccnc3)n1)S2(=O)=O` [Compound 133]: the EC50 was over 31.6 µM.
Same read-out and setting: in the case of `N#Cc1ccc(Oc2nccc(N3Cc4ccccc4S3(=O)=O)n2)cc1` [Compound 40] it was over 10 µM; in that of `Cc1cc(Oc2cccnc2)nc(N2Cc3cccnc3C2=O)c1` [Compound 135], over 10 µM; in that of `O=S1(=O)c2ccccc2CN1c1ccnc(Oc2ccc(-n3cncn3)cc2)n1` [Compound 48], over 10 µM.
On the same count and under the same terms, the value for `COc1ccc(-c2cc(N3Cc4ccccc4S3(=O)=O)nc(Oc3cccnc3)n2)cc1` [Compound 85] was over 31.6 µM.
For `O=S1(=O)c2ccccc2CN1c1ccnc(OCc2cccnc2)n1` [Compound 71], the activation at 10 µM was determined as 1%.
For the compound `CNC(=O)c1cc(Oc2ccc(Cl)cc2)nc(N2Cc3ccccc3S2(=O)=O)c1` [Compound 137], the EC50 was 2.51 µM.
With `O=C1c2ccccc2CN1c1cccc(Oc2cccc(Cl)c2)n1` [Compound 130], the EC50 was over 31.6 µM.
Same read-out and setting: the value for `CC(=O)N1CCC(Oc2nccc(N3Cc4ccccc4S3(=O)=O)n2)C1` (stereo not shown) [Compound 112] was over 31.6 µM.
As to `c1cncc(Oc2ccnc(N3Cc4ccccc4C3)n2)c1` [Compound 14], the activation at 10 µM turned out to be 8%.
For the compound `O=S1(=O)c2ccccc2CN1c1cccc(OC2CCC2)n1` [Compound 126], the EC50 was over 31.6 µM.
Same read-out and setting: the value for `O=S1(=O)c2ccccc2CN1c1ccnc(OCC2CCC2)n1` [Compound 69] was 3.98 µM.
On the same count and under the same terms, the value for `O=C1c2ccccc2CN1c1nccc(Oc2cccnc2)n1` [Compound 117] was over 10 µM.
Still for that read-out and setting: the value for `O=S1(=O)c2ccccc2CN1c1ccnc(Oc2ccc(OC(F)(F)F)cc2)n1` [Compound 49] was 2.51 µM.
In the case of `c1cncc(Oc2nccc(N3Cc4ccccc4C3)n2)c1` [Compound 13], the activation at 10 µM worked out at 9%.
With `O=S1(=O)c2ccccc2CN1c1ccnc(Oc2ccc(OC(F)(F)F)cc2Cl)n1` [Compound 57], the EC50 was 1 µM.
The same measure, in the same setting: the value for `O=S1(=O)c2ccccc2CN1c1ccnc(OC2CCNCC2)n1` [Compound 62] was over 10 µM; that for `CN(C)c1cccc(Oc2nccc(N3Cc4ccccc4S3(=O)=O)n2)c1` [Compound 23] was 3.16 µM.
As for `O=S1(=O)c2ccccc2CN1c1nccc(OC2CC(F)(F)C2)n1` [Compound 94], the EC50 was over 10 µM.
Still for that read-out and setting: in the case of `Cc1cc(C)c(Oc2nccc(N3Cc4ccccc4S3(=O)=O)n2)cn1` [Compound 53] it was over 10 µM; in that of `N#Cc1ccc(Oc2nccc(N3Cc4ccccc4S3(=O)=O)n2)cn1` [Compound 55], over 10 µM; in that of `O=S1(=O)c2ccccc2CN1c1ccnc(Oc2cncc3ccccc23)n1` [Compound 32], 25.1 µM.
Same read-out and setting: the value for `CC(=O)N1CCCC(Oc2nccc(N3Cc4ccccc4S3(=O)=O)n2)C1` (stereo not shown) [Compound 66] was over 10 µM.

(Values after patent publication US12116362B2, “Monocyclic compounds useful as GPR120 modulators” (Valo Health, Inc., priority 2016, dated 2024).)
